Assay results from patent US4632905A, “Microbial sulfhydryl oxidase” (Novo Laboratories, Inc., priority 1985, dated 1986).
Where “and” joins values, the source holds several entries; their conditions need not be identical. Equal entries are not always repeated.

Experiments:
Type in all cases: biochemical
[1] = tested on: Aspergillus sojae SOX; assay: Substrate specificity of SOX toward low MW thiol compounds, polarographic (oxygen consumption); settings: 1 mM test compound, 227 μM oxygen, 50 mM potassium phosphate pH 6.7, 30° C., corrected for auto-oxidation
Experimental: SOX activity may be ascertained by two methods. The activity may be determined by measuring the oxygen consumed when a suitable substrate, e.g., reduced glutathione, is oxidized enzymatically to the corresponding disulfide. The stoichiometry involved is according to the equations 1 and 2 below, namely, 1/2 oxygen consumed per disulfide formed, when the reaction is carried out in the presence of catalase activity.
The assay employs oxygen electrode techniques and is used with low MW compounds as substrates.
The ability of low MW thiol-containing compounds to serve as substrates for SOX was determined polarographically at 30° C., pH 6.7. […] Protein specificity was determined with proteins in their reductively denatured state. Reductive denaturation is accomplished by submitting the protein to a denaturant e.g., urea and a mercaptan such as beta-mercaptoethanol at pH 8.5. Renaturation is then achieved by incubating the reduced protein with the SOX for a period of time at pH 7.0. The progress of the renaturation can easily be assessed by reaction of the protein with DTNB.
The activity of the SOX preparation may be determined polarographically by measuring the oxygen consumed when a substrate e.g., reduced glutathione (GSH) is oxidized to the corresponding disulfide. The activity may also be determined spectrophotometrically using dithiobisnitrobenzoic acid (DTNB) which specifically reacts with a free sulfhydryl by measuring the absorption at 412 nm (ε=13.6×10^3 M^-1 cm^-1). Therefore, one unit of activity is defined as that amount of enzyme which catalyzes the consumption of 1.0 μmole of oxygen per minute or loss of 2.0 μmoles of free sulfhydryls per minute at 30° C., pH 6.7 using 1 mM GSH as substrate.
The substrate specificity of SOX toward low MW compounds containing a free SH moiety was ascertained by polarographic methodology. The activities were measured relative to glutathione (GSH) at 30° C. in the following assay system: 1 mM test compound, 227 μM molecular oxygen, 50 mM potassium phosphate pH 6.7, and sufficient SOX to yield a linear decrease in oxygen during the first three minutes. The rates were corrected for auto-oxidation.

[2] = tested on: Aspergillus sojae SOX; assay: Inhibition of Aspergillus sojae SOX
[3] = tested on: bovine SOX; assay: Inhibition of bovine SOX; settings: 1 mM concentration

O[C@H](CS)[C@H](O)CS (racemic) [D,L--dithiothreitol, D,L-dithiothreitol]
% of Activity with GSH [1]: 5.6% | % of Activity with GSH ([1]; listed as D,L-dithiothreitol): 3-22%

N[C@H](CS)C(=O)O [D--cysteine, D-cysteine]
% of Activity with GSH [1]: 4.1% | % of Activity with GSH ([1]; listed as D-cysteine): 3-22%

O=C(O)CN(CCN(CC(=O)O)CC(=O)O)CC(=O)O [EDTA]
Inhibition of Aspergillus sojae SOX ([2]; concentration not printed for this enzyme): not inhibited | Inhibition of bovine SOX [3]: almost completely

N[C@@H](CS)C(=O)O [L--cysteine, L-Cysteine]
% of Activity with GSH [1]: 8.7% | % of Activity with GSH ([1]; listed as L-Cysteine): 3-22%

CCOC(=O)[C@@H](N)CS [L--cysteine, ethyl ester, L-cysteine ethyl ester]
% of Activity with GSH [1]: 21.8% | % of Activity with GSH ([1]; listed as L-cysteine ethyl ester): 3-22%

CC(=O)N[C@@H](CS)C(=O)O [N--acetyl-L--cysteine, N-acetyl-L-cysteine]
% of Activity with GSH [1]: 3.0% | % of Activity with GSH ([1]; listed as N-acetyl-L-cysteine): 3-22%

O=S(=O)([O-])[O-].[Zn+2] [ZnSO4]
Inhibition of microbial SOX ([2]; 1 mM concentration): partially inhibited | Inhibition of bovine SOX [3]: non-inhibitory

OCCS [beta-mercaptoethanol]
% of Activity with GSH [1]: 3-22% and 4.2%

O[C@H](CS)[C@@H](O)CS [dithioerythreitol, D,L-dithioerythreitol]
% of Activity with GSH [1]: 6.6% | % of Activity with GSH ([1]; listed as D,L-dithioerythreitol): 3-22%

N[C@@H](CCC(=O)N[C@@H](CS)C(=O)NCC(=O)O)C(=O)O [glutathione, δ-L-glutamyl-L-cysteinyl-glycine]
% of Activity with GSH [1]: 100%
